What all share (type): biochemical
The target in experiment [1] is T1, R878K mutated mAPA (Mus musculus, UniProt P16406, R878K).
T1 construct: made in house; host or cells: stably transfected CHO-K1 cells
T1 sequence (P16406 1-945 R878K): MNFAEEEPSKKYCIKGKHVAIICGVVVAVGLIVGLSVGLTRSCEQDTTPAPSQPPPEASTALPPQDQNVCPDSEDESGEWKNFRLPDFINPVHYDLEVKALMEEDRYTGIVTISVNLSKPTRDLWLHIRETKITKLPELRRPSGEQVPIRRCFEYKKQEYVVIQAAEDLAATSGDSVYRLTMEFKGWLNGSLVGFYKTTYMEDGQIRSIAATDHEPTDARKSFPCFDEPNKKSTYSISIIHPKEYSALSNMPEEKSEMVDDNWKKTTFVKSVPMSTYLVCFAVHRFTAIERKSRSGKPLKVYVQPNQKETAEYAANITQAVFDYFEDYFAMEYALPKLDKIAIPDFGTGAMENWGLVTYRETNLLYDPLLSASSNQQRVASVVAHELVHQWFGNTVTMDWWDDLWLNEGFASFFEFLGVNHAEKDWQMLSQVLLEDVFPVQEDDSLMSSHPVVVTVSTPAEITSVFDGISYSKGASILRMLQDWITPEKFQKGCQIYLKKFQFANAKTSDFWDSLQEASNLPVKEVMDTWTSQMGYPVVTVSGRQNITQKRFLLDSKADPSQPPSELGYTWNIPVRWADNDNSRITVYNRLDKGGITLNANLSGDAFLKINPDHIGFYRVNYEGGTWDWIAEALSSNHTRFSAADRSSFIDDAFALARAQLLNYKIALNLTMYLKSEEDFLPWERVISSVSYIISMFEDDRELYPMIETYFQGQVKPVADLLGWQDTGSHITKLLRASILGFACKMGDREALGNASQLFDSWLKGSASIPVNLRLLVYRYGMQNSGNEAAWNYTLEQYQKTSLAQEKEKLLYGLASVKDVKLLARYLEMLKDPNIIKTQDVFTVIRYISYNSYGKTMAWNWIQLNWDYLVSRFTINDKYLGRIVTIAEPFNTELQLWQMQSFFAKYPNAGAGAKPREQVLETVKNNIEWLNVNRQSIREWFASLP
Nature of the experiment: Inhibition of GluNA hydrolysis by purified recombinant R878K His-mAPA. Conditions: R878K mAPA; for Ki: 0.5 mM GluNA, read-out: Ki. Here is the method: (§1) Enzyme assays were carried out for wild-type and mutated His-mAPAs in 50 mM Tris-HCl buffer, pH 7.4, with or without 4 mM CaCl2, by monitoring the rate of hydrolysis of GluNA, as previously described. The sensitivity to Ca^2+ of purified wild-type and mutated His-mAPA was determinated by incubating 0.5 mM GluNA with 0 to 4 mM CaCl2 in a final volume of 100 μl of 50 mM Tris-HCl buffer, pH 7.4. All the assays were performed in black 96-well plates (solid black 96-well flat-bottomed non-treated plates with no lid; Corning Costar). All of the enzymatic studies were performed such that substrate hydrolysis rates were maintained below 10% (initial rate conditions). The kinetic curves were monitored by following the increase in fluorescence at 460 nm (lex = 330 nm), induced by the release of the β-naphthylamide fluorogenic part of the substrate by APA. Fluorescence signals were monitored by counting photons with a spectrophotometer (Fusion universal microplate analyser; Packard) equipped with a temperature control device and a plate shaker. The kinetic parameters (Km and kcat) were determined from Michaelis-Menten plots, using GraphPad Prism 4 software (GraphPad) with a final concentration of substrate (GluNA) from 0.005 to 5 mM with or without 4 mM Ca^2+. For evaluation of the substrate specificity of APA with or without 4 mM Ca^2+, the rate of hydrolysis of […] additional substrates, α-L-aspartate-β-naphthylamide (AspNA), α-L-alanine-β-naphthylamide (AlaNA) and basic α-L-lysine-β-naphthylamide (LysNA), was determined under the same experimental conditions as described for GluNA. The sensitivity of wild-type and mutated His-mAPAs to inhibition by [(3S)-3-amino-4-sulfanyl-butane-1-sulfonic acid] (EC33), glutamate-thiol (GluSH), glutamate-phosphonic-acid (GluPO3H2), methionine-thiol (MetSH) and lysine-thiol (LysSH) was determined by establishing dose-dependent inhibition curves for a final GluNA concentration of 0.5 mM in the presence or absence of 4 mM CaCl2. These compounds being linear competitive inhibitors, their Ki were calculated from the formula Ki = IC50/ (1+ [GluNA]/Km).

The next experiment concerns the target T2, wild-type mAPA (Mus musculus, UniProt P16406).
T2 construct: made in house; host or cells: stably transfected CHO-K1 cells
T2 sequence (P16406 1-945): T1 sequence (P16406 1-945 R878K) with K878R
Nature of the experiment: Kinetic parameters of substrate hydrolysis by wild-type His-mAPA. Conditions: for Km / kcat: wild type mAPA. Here is the method: as §1

In experiment [2] the target is T1, R878K mutated mAPA. Nature of the experiment: Kinetic parameters of substrate hydrolysis by R878K His-mAPA. Here is the method:
as §1

SMILES strings stand for the structures. Substitutions are numbered along the chain they refer to. Where two headings read alike, the source gives them in different places.

A word on the Ki: it is a measure of affinity in units of concentration, obtained from inhibition or displacement. Take `N[C@H](CS)CCC(=O)O` [GluSH, (4S)-4-amino-5-sulfanylpentanoic acid]: the “enhancement of inhibitory potency by 4 mM Ca2+ compared to Ki in the absence of Ca2+” value at R878K mutated mAPA [1] is listed as 6.6 fold. Moreover, the Ki on R878K mutated mAPA [1] (4 mM Ca2+) was 2100 ± 440 nM; on R878K mutated mAPA [1] (absence of calcium), more than 10000 nM.
For orientation: Km means the substrate concentration at which the rate is half of its maximum. A word on the kcat: it is the maximal rate divided by the concentration of active sites. As to `NCCCC[C@H](N)C(=O)Nc1ccc2ccccc2c1` [HLysβNA, α-L-lysine-β-naphthylamide], the Km came out at 244 ± 29.5 µM at wild-type mAPA (4 mM Ca2+), 304 ± 49.7 µM at wild-type mAPA (no Ca2+), 229 ± 16.2 µM at R878K mutated mAPA [2] (4 mM Ca2+) and 336 ± 54.3 µM on R878K mutated mAPA [2] (no Ca2+). Also, the kcat at wild-type mAPA (4 mM Ca2+) was 25.8 ± 0.2 s⁻¹; at wild-type mAPA (no Ca2+), 16.4 ± 0.7 s⁻¹; on R878K mutated mAPA [2] (4 mM Ca2+) it was 24.4 ± 0.5^n.s s-1; at R878K mutated mAPA [2] (no Ca2+), 9.0 ± 0.5 s⁻¹.
Consider `N[C@H](CS)CCS(=O)(=O)O` [EC33, (3S)‐3‐amino‐4‐sulfanylbutane‐1‐sulfonic acid], for which the Ki at R878K mutated mAPA [1] (4 mM Ca2+) was 1520 ± 126 nM.
For the compound `C[C@H](N)C(=O)Nc1ccc2ccccc2c1` [HAlaβNA, α-L-alanine-β-naphthylamide], the Km on wild-type mAPA (4 mM Ca2+) stood at 321 ± 41 µM; at wild-type mAPA (no Ca2+), 394 ± 20 µM; on R878K mutated mAPA [2] (4 mM Ca2+), 821 ± 142 µM; at R878K mutated mAPA [2] (no Ca2+) it was 670 ± 25.2 µM. For the same compound, the kcat on wild-type mAPA (4 mM Ca2+) is 17.4 ± 0.6 s⁻¹; at wild-type mAPA (no Ca2+), 21.6 ± 0.5 s⁻¹; at R878K mutated mAPA [2] (4 mM Ca2+), 26.2 ± 1.5 s⁻¹; on R878K mutated mAPA [2] (no Ca2+), 27.1 ± 4.8 s⁻¹.
In the case of `NCCCC[C@H](N)CS` [LysSH, (2S)-2,6-diaminohexane-1-thiol], the Ki came out at 13900 ± 390 nM at R878K mutated mAPA [1] (4 mM Ca2+) and 378 ± 20 nM on R878K mutated mAPA [1] (absence of calcium).
As to `CSCC[C@H](N)CS` [MetSH], the Ki on R878K mutated mAPA [1] (4 mM Ca2+) turned out to be 5140 ± 560 nM; on R878K mutated mAPA [1] (absence of calcium), 1250 ± 57 nM.
Take `N[C@@H](CC(=O)O)C(=O)Nc1ccc2ccccc2c1` [HAspβNA, α-L-aspartate-β-naphthylamide]: the Km at wild-type mAPA (4 mM Ca2+) worked out at 54 ± 1.4 µM; on wild-type mAPA (no Ca2+), 149 ± 15.6 µM; at R878K mutated mAPA [2] (4 mM Ca2+) it was 202 ± 5.7 µM; at R878K mutated mAPA [2] (no Ca2+) it was 3150 ± 328 µM. Besides, the kcat at wild-type mAPA (4 mM Ca2+) is 68.1 ± 1.3 s⁻¹; on wild-type mAPA (no Ca2+), 10.4 ± 0.6 s⁻¹; on R878K mutated mAPA [2] (4 mM Ca2+) it was 42.2 ± 1.1 s⁻¹; at R878K mutated mAPA [2] (no Ca2+) it was 0.2 ± 0.01 s⁻¹.
For `N[C@@H](CCC(=O)O)C(=O)Nc1ccc2ccccc2c1` [HGluβNA, α-L-glutamyl-β-naphthylamide], the Km is 39.1 ± 3.9 µM at wild-type mAPA (4 mM Ca2+), 165 ± 13.5 µM at wild-type mAPA (no Ca2+), 269 ± 5.1 µM at R878K mutated mAPA [2] (4 mM Ca2+) and 12500 ± 1450 µM on R878K mutated mAPA [2] (no Ca2+). The kcat on wild-type mAPA (4 mM Ca2+) turned out to be 81.7 ± 4.0 s⁻¹; at wild-type mAPA (no Ca2+) it was 13.9 ± 0.1 s⁻¹; on R878K mutated mAPA [2] (4 mM Ca2+), 135 ± 1.3 s⁻¹; at R878K mutated mAPA [2] (no Ca2+), 3.12 ± 0.4 s⁻¹. Moreover, the “increase of cleavage efficiency (kcat/Km) by addition of Ca2+” value on wild-type mAPA (wild-type APA, 4 mM Ca2+ vs no Ca2+) is listed as 25 fold. In addition, the “decrease in the affinity of the enzyme for the substrate compared to wild-type (factor)” value on R878K mutated mAPA [2] (presence of Ca2+) amounted to 6.

The values are drawn from PMC5587309, “Involvement of arginine 878 together with Ca^2+ in mouse aminopeptidase A substrate specificity for N-terminal acidic amino-acid residues” (PLoS ONE, 2017).
